Experimental data published in PubChem BioAssay AID504861 (Broad Institute, 2011).
Active and inactive are the calls of the source.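 How the source made its calls: active means compounds lowering cell viability signal with fitted half-maximal concentration at most ten times their highest tested concentration; inconclusive means flat fit with 30 to 70% signal loss, or poor fit; inactive means the rest.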

System: HEK293T viability, CellTiter-Glo ATP luminescence, 48 h
Test: HEK293T cell viability reduction, dose response, cytotoxicity control for LMP1 NF-kB inhibitor project, CellTiter-Glo luminescence, cherry-picks (AID 504861)

Structure (SMILES) | AC50
CCOc1ccc(Br)cc1/C(C)=N\NC1=NCCN1 | 3.69 µM
Cc1ccc(CSc2nc3ccncc3[nH]2)cc1 | 20.9 µM
CCN(CC)S(=O)(=O)c1cccc(NC(=O)Nc2cccc(C(F)(F)F)c2)c1 | 19.1 µM
COc1ccc(C=C2CS(=O)(=O)CC(=Cc3ccc(OC)cc3)C2=O)cc1 | 11.8 µM
O=C1C(=C(c2ccccc2)N2CCOCC2)Cc2ccccc21 | 1.38 µM
COc1cc2c(cc1OC)C(c1ccc(-c3ccccc3Cl)o1)=NCC2 | 21 µM
O=C1c2ccccc2C(Nc2ccc(Cl)cc2)N1CCN1CCOCC1 (stereo unspecified) | > 26 µM (inactive)
O=C(NC1CCCCCCC1)c1cc(COc2ccc3ncccc3c2)on1 | 1.3 µM
C#Cc1cc(N2CCN(C(=O)c3ccoc3)CC2)n2nc(-c3cccc(Cl)c3)cc2n1 | 5.11 µM
O=C(Nc1nc2ccc(F)cc2s1)C1=COCCO1 | 18.7 µM
CCN1CCN(Cc2ccc(NC(=O)c3ccc(C)c(NC(=O)c4nccnc4N)c3)cc2C(F)(F)F)CC1 | 23.6 µM
CC(=O)NC(c1ccc(C(C)C)cc1)c1ccc2cccnc2c1O (stereo unspecified) | 1.2 µM
CCCc1sc(N/N=C/c2ccccn2)nc1-c1ccc(Br)cc1 | 21.4 µM
COc1cccc(/C=N/Nc2ncccc2[N+](=O)[O-])c1OC | 18.8 µM
CC(=NNC(=S)N1CCCCC1)c1cccc(C)n1 | > 26 µM (inactive)
CCN1C(=O)[C@@H]2[C@@H](c3ccc(-c4ccc(Cl)c(Cl)c4)cc3)N3CCC[C@@]3(C(=O)OC)[C@@H]2C1=O | > 26 µM (inactive)
COc1cccc(/C=N/Nc2ncnc(Cl)c2N)c1O | 3.23 µM
O=C(Nc1ccc2c(c1)OCCO2)c1ccccn1 | 21.2 µM
Fc1ccc2[nH]c3c(N4CCSCC4)ncnc3c2c1 | 9.97 µM
CCCCCN=Cc1c(C)[nH]n(-c2nc3ccccc3s2)c1=O | 1.33 µM
C#CCn1c(S(=O)(=O)Cc2ccc(F)cc2)nc(-c2ccccc2)c1-c1ccccc1 | > 26 µM (inactive)

Structure (SMILES) | AC50
CCOc1ccc(OCC(=O)Nc2nccs2)cc1 | 11.3 µM
CCCCC(=O)NC(c1ccc(Cl)cc1)c1ccc2cccnc2c1O (stereo unspecified) | 4.35 µM
C#CCN(C[C@@H]1[C@@H](OC(=O)NCc2ccccc2F)[C@@H](OC(=O)NCc2ccccc2F)Cn2c(=O)ccc(=O)n21)S(=O)(=O)c1ccc(C)cc1 | 7.27 µM
COc1ccc(-c2ccc(NC(=O)c3ccco3)cc2)nn1 | 7.75 µM
Cc1cc(Sc2nnc(N)s2)c2ccccc2n1 | 3.34 µM
O=C(Nc1nnc(SCc2ccc(F)cc2)s1)c1ccccn1 | 25.9 µM
COc1ccc(O)c(/C=N/NC(=O)c2ccc(OCc3cccc(Br)c3)cc2)c1 | 4.45 µM
CS(=O)(=O)c1ncc(Cl)c(C(=O)Nc2ccc(OC(F)F)cc2)n1 | 3.2 µM
C(=Cc1cnc2ccccc2n1)c1ccc2c(c1)OCO2 | 1.74 µM
C[n+]1c2n(c3ccccc31)N=C(c1cc(C(C)(C)C)c(O)c(C(C)(C)C)c1)CS2 | 9.45 µM
Nc1nc2ccccc2n1C(=O)c1ccccc1 | > 26 µM (inactive)
CCCCC(=O)NC(c1cccc([N+](=O)[O-])c1)c1ccc2cccnc2c1O (stereo unspecified) | 3.93 µM
O=C(CF)N(O)c1ccc(C=Cc2ccccc2)cc1 | > 26 µM (inactive)
O=C(N/N=C/c1cccs1)c1n[nH]c2c1CCCC2 | 27 µM
CSc1ccc2c(c1)C(N1CCN(C)CC1)Cc1ccccc1S2 (stereo unspecified) | 15.4 µM
C=CCNC(=S)N/N=C(\C)c1ccccn1 | 2.06 µM
CCNC(=S)NNC(=O)c1cc(-c2ccc(OCC)cc2)nc2ccccc12 | 23 µM
COc1ccccc1N(C(C)=O)C1=C(Cl)C(=O)c2ccccc2C1=O | 11.7 µM
CCN(CC)C(=O)c1ccc(NC(=O)Nc2ccccc2F)cc1 | 2.41 µM
COc1ccccc1-c1nc(-c2ccccn2)no1 | 5.63 µM
c1ccc(CCNc2nc(-c3ccccn3)nc3ccccc23)cc1 | 1.13 µM

Structure (SMILES) | AC50
NC(=S)N/N=C/c1ncc(C(F)(F)F)cc1Cl | 17.9 µM
COc1ccccc1[C@]1(C)ON(c2ccccc2C(F)(F)F)C1=O | 26.4 µM
Cc1cc(=O)[nH]c(NN=Cc2cc(Br)ccc2O)n1 | 3.36 µM
COc1ccc(/C=N/Nc2cc(C)nc3ccc(OC)cc23)c(OC)c1 | 5.04 µM
CCN(CC)c1ccc(/C=N/NC(=O)c2c(Cl)cnn2C)c(O)c1 | 2.81 µM
CCN1CCN(Cc2ccc(NC(=O)c3ccc(C)c(/C=C/c4cnc(Nc5cc(N6CCNCC6)nc(C)n5)cn4)c3)cc2C(F)(F)F)CC1 | 14.3 µM
Oc1ccc(C=NNC(=S)Nc2ccccc2)nc1 | 4.96 µM
CCN1CCN(Cc2ccc(NC(=O)c3ccc(C)c(NC(=O)c4cc(-c5ccc(Br)cc5)n[nH]4)c3)cc2C(F)(F)F)CC1 | 15.6 µM
Oc1ccc2ccccc2c1N=Nc1ccccn1 | 3.42 µM
CCOC(=O)c1cn2nc(N3CCCCC3)ccc2n1 | > 26 µM (inactive)
Cc1csc(SCC(=O)c2cc(C)n(Cc3cccs3)c2C)n1 | > 26 µM (inactive)
COc1ccc(NC2=NCC(Cc3ccc(Br)cc3)S2)cc1 (stereo unspecified) | 26.2 µM
O=C(N/N=C/c1sc2ccccc2c1O)c1cccc2ccccc12 | 4.96 µM
C/C(=N/NC(=O)c1ccc(C(C)(C)C)cc1)c1ccccn1 | 3.38 µM
COc1cc(C=C2CCCC(=Cc3ccc(OCC4CO4)c(OC)c3)C2=O)ccc1OCC1CO1 (stereo unspecified) | 24.3 µM
COc1ccc(C(=O)Nn2c(SCC(=O)NC3CCCCC3)nc3ccccc3c2=O)cc1 | > 26 µM (inactive)
CCN(CC)c1ccc(C(NC(=O)C(C)C)c2ccc3cccnc3c2O)cc1 (stereo unspecified) | 4.34 µM
Cc1cccc(-n2ncc(Cl)c(Cl)c2=O)c1 | 5.2 µM
C/C(=N\NC(=O)c1cccc(Br)c1)c1ccccn1 | 3.59 µM
COc1ccc(Cc2nnc(N/N=C/c3ccc(O)cc3)[nH]c2=O)cc1OC | 3.56 µM
COc1ccc2[nH]c(-c3ccc(C)cc3)cc(=O)c2c1 | > 26 µM (inactive)

Structure (SMILES) | AC50
O=C(CCl)N(c1ccc(Cl)cc1)c1c[nH]c2ccccc12 | 1.19 µM
Cc1ccc(C(=O)/C=C/C(=O)c2ccc(C)cc2)cc1 | 7.08 µM
Oc1cccc2ccc(Nc3ccccn3)nc12 | 8.91 µM
c1ccc(CCCN2CCN(CCOC(c3ccccc3)c3ccccc3)CC2)cc1 | 16.5 µM
S=C(NCCCN1CCOCC1)N1CCN(c2nc(-c3ccc(Cl)cc3)cs2)CC1 | > 26 µM (inactive)
COc1ccc(O)c(/C=N/Nc2nc(Nc3ccccc3)nc(-n3nc(C)cc3C)n2)c1 | 7.55 µM
CC(=NNC(=S)N1CCCCCC1)c1ccccn1 | 2.18 µM
Cc1ccc(C(=O)Nc2ccc3c(c2)OCCO3)c(Cl)c1 | > 26 µM (inactive)
Nc1ccc(C(=O)N/N=C\c2cc(N=Nc3cccc4ccccc34)ccc2O)cc1 | 26.5 µM
COc1cccc(/C=N/NC(=O)c2[nH]nc3c2CCc2ccccc2-3)c1O | 3.21 µM
Cc1cc(C)nc(SCc2ccc(C(=O)N/N=C/c3cccc(O)c3O)cc2)n1 | 20.3 µM
COc1ccccc1/C=C/C(=O)c1ccc(Cl)cc1 | 12.4 µM
CC(=O)NC(c1cccs1)c1cc(F)c2cccnc2c1O (stereo unspecified) | 4.67 µM
CCOC(=O)c1c(C)[nH]c(C(=O)N/N=C\c2ccccc2O)c1C | 4.09 µM
CC(=O)NC(c1ccc2ccccc2c1)c1ccc2cccnc2c1O (stereo unspecified) | 1.32 µM
Cc1csc(N=Nc2ccc(N(C)C)cc2)[n+]1[O-] | 5.71 µM
CC(=O)OC1CCC2(C)C(CCC3C4CC=C(C(C)=O)C4(C)OC(=O)CC32)C1 (stereo unspecified) | 4.45 µM
c1ccc(-c2cccc(-c3ccccn3)n2)nc1 | 1.77 µM
